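Briefly, cells in 96-well plates were exposed to five compound concentrations for 48 h, and endpoints were estimated by linear interpolation. Definition used: TGI = concentration required for complete inhibition of growth.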
Tests used:
Experiment in all cases: NCI anticancer screen, dose series, 48 h
MDA-MB-231 breast = test system: MDA-MB-231 breast
RPMI-8226 leukemia = test system: RPMI-8226 leukemia
T-47D breast = test system: T-47D breast
A498 renal = test system: A498 renal
HL-60(TB) leukemia = test system: HL-60(TB) leukemia
OVCAR-3 ovarian = test system: OVCAR-3 ovarian
SF-295 CNS = test system: SF-295 CNS
DU-145 prostate = test system: DU-145 prostate
NCI-H522 lung = test system: NCI-H522 lung
CCRF-CEM leukemia = test system: CCRF-CEM leukemia

SMILES | TGI (MDA-MB-231 breast) | TGI (RPMI-8226 leukemia) | TGI (T-47D breast) | TGI (A498 renal) | TGI (HL-60(TB) leukemia) | TGI (OVCAR-3 ovarian) | TGI (SF-295 CNS) | TGI (DU-145 prostate) | TGI (NCI-H522 lung) | TGI (CCRF-CEM leukemia)
CC(C)CC1c2[nH]c3ccccc3c2C[C@H]2C(=O)NC(COC(C)(C)C)C(=O)N12 (stereo not given in full) | 38.8 µM | 58 µM | 43.4 µM | > 100 µM | 53.4 µM | 16.3 µM | 35 µM | > 100 µM | 35.4 µM | 
Cc1ccc(S(=O)(=O)NC(=O)NS(=O)(=O)O)cc1 | > 100 µM | > 100 µM | > 100 µM |  | > 100 µM |  |  | > 100 µM | > 100 µM | > 100 µM
O=C(CCCN1CCc2[nH]c3cc(F)ccc3c2C1)c1ccc(F)cc1 | 25.5 µM | 27.2 µM | 36.1 µM | 24.4 µM | 27.2 µM | 28.1 µM | 32.7 µM | 26.1 µM | 35.6 µM | 30.9 µM
CN1C(=O)[C@@]2(C=CC3(CC2)OCCO3)c2ccccc21 | > 50 µM | > 50 µM | > 50 µM | > 50 µM | > 50 µM | > 50 µM | > 50 µM | > 50 µM | > 32.4 µM | > 50 µM
CC(=O)Oc1ccc2c(c1)c1c(OC(C)=O)c3ccccc3c(OC(C)=O)c1n2Cc1cccc(C)c1 | > 100 µM | 74.4 µM | > 100 µM | 70.6 µM | > 100 µM | 72.9 µM | 72.3 µM | > 100 µM | 52.8 µM | 62.6 µM
CSC1(SC)CCCCCCCCCCC1 | > 100 µM | > 100 µM | 73.3 µM | > 100 µM | > 100 µM | 72.7 µM | 97.1 µM | > 100 µM | 34.9 µM | 48.6 µM
COc1ccc(C=O)cc1Oc1ccc(C[C@H]2c3c(cc(OC)c4c3Oc3cc5c(cc3O4)CCN(C)C5=O)CCN2C)cc1 | 14.6 µM | 14.3 µM | > 50 µM | > 50 µM | 17.5 µM | 15.4 µM | 16.3 µM | 25.2 µM | 18.1 µM | 22.1 µM
COC(=O)c1cc2c3c(c(C(C)=O)c(OC)c2[nH]1)NCC3 | > 50 µM | > 50 µM | > 50 µM | > 50 µM | > 50 µM | > 50 µM | > 50 µM | > 50 µM |  | > 50 µM
Cn1c(=O)c2[nH]c(N/N=C3/SCC(=O)N3Cc3ccccc3)nc2n(C)c1=O | > 100 µM | > 100 µM | > 100 µM | > 100 µM | > 100 µM | > 100 µM | > 100 µM | > 100 µM | > 100 µM | 62.9 µM
Cc1nn(C(=O)c2ccccc2O)c2c1C(c1ccc(O)cc1)SC(N)=N2 (stereo not given) | > 10 µM | > 5.38 µM | 9.72 µM | > 10 µM | > 4.33 µM | > 6.89 µM | > 10 µM | > 10 µM | > 10 µM | > 10 µM
CCOC(=O)Cc1nc2c(=O)[nH]cnc2n1C1OC(COC(C)=O)C(OC(C)=O)C1OC(C)=O (stereo not given) | > 100 µM | > 100 µM | > 100 µM | > 100 µM | > 100 µM | > 100 µM | > 100 µM | > 100 µM | > 100 µM | > 100 µM
CCOc1cc(C=O)ccc1O | > 100 µM | > 100 µM | > 100 µM |  | > 100 µM | > 100 µM | > 100 µM | > 100 µM | > 100 µM | 
O=C(O)CCCc1nc2c(n1-c1ccccc1)C(=O)c1ccccc1C2=O | > 100 µM | > 100 µM | > 100 µM | > 100 µM | > 100 µM | 82.7 µM | > 100 µM | > 100 µM | > 100 µM | > 100 µM
CSc1s[s+]c(SC)c1-c1ccccc1 | 31.2 µM | 56.7 µM | > 100 µM | 47.3 µM | 60.6 µM | 37.6 µM | 36.9 µM | > 100 µM | 27.9 µM | 81.4 µM
COc1ccc([C@@]23CCC(=O)C[C@@H]2N(C)CC3)cc1OC | > 100 µM | > 100 µM | > 100 µM | > 100 µM | > 100 µM | > 100 µM | > 100 µM | > 100 µM | > 100 µM | > 100 µM
N#Cc1nnc2c3c(-c4ccc(Cl)cc4)c(C#N)c(=O)[nH]c3nn2c1N | 43.5 µM | 51.1 µM | 3.97 µM | 10.9 µM | > 100 µM | 8.08 µM | 23.9 µM | 16.8 µM | 6.11 µM | > 100 µM
COc1cc(O)c2c(c1)C(O)C(O)CC1OC1C(=O)/C=C/CC(C)OC2=O (stereo not given) | 16.1 µM | 34.5 µM | 30.4 µM | 27.3 µM | > 23.4 µM | 16.7 µM | 46.6 µM | > 72.2 µM | 8.07 µM | 8.8 µM
COc1ccc(S(=O)(=O)Nc2ccc(-c3csc(N4C(=O)/C(=C/C=C\c5ccccc5)N=C4c4ccccc4)n3)cc2)cc1Cl | 51.6 µM |  | 57.1 µM | 73.1 µM | 59.9 µM | > 100 µM | > 100 µM | 91.6 µM | 47.3 µM | > 100 µM
COC(=O)C(Cc1ccccc1)NC(=O)CCCNC(=O)OCc1ccccc1 (stereo not given) | > 100 µM | > 100 µM | > 100 µM |  | > 100 µM | > 100 µM | > 100 µM | > 100 µM | > 100 µM | > 100 µM
O=C(O)c1ccc(Nc2cnc3ccc(C(F)(F)F)cc3n2)cc1 | 36.9 µM | 48 µM | 17.9 µM | 42.9 µM | 20.7 µM | 98.1 µM | 45.3 µM | 69.5 µM |  | 43.1 µM
c1ccc(C/C(=N\Nc2nc3ccccc3o2)c2ccccn2)cc1 | 16.7 µM | 0.957 µM | > 33.5 µM | 1.69 µM | 1.68 µM | 0.0301 µM | 3.25 µM | 8.38 µM | 18.9 µM | 0.0473 µM
